Source: the supplement of paper PMC10307832

Key:
Experiment in all cases: relative viability (nuclei count vs DMSO), 5 days (fraction); higher = more cells survive
BEN = system: BEN
Summary of the method: (§1)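 Lung cancer cell lines, seeded in 1536-well plates, were treated the following day by pin tool with a single drug or with five library-drug doses (not always all listed) in √10 steps on top of a fixed anchor-drug dose. Cells were fixed and nuclei stained in one step after 5 days, and nuclei were counted. Relative viability is the nuclei count for treated wells divided by that for vehicle wells, reported as medians of duplicate plates.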

EKVX = system: EKVX
Summary of the method: as §1

HCC-15 = system: HCC-15
Summary of the method: as §1

HCC-366 = system: HCC-366
Summary of the method: as §1

HCC-44 = system: HCC-44
Summary of the method: as §1

LCLC-103H = system: LCLC-103H
Summary of the method: as §1

LOU-NH91 = system: LOU-NH91
Summary of the method: as §1

NCI-H1355 = system: NCI-H1355
Summary of the method: as §1

NCI-H1395 = system: NCI-H1395
Summary of the method: as §1

NCI-H1437 = system: NCI-H1437
Summary of the method: as §1

NCI-H1650 = system: NCI-H1650
Summary of the method: as §1

NCI-H1651 = system: NCI-H1651
Summary of the method: as §1

NCI-H1734 = system: NCI-H1734
Summary of the method: as §1

NCI-H1755 = system: NCI-H1755
Summary of the method: as §1

NCI-H1975 = system: NCI-H1975
Summary of the method: as §1

NCI-H2023 = system: NCI-H2023
Summary of the method: as §1

NCI-H2085 = system: NCI-H2085
Summary of the method: as §1

NCI-H2342 = system: NCI-H2342
Summary of the method: as §1

NCI-H358 = system: NCI-H358
Summary of the method: as §1

NCI-H441 = system: NCI-H441
Summary of the method: as §1

NCI-H460 = system: NCI-H460
Summary of the method: as §1

NCI-H838 = system: NCI-H838
Summary of the method: as §1

Compound: C[C@@H]1CN(CC(=O)Nc2ccc3c(c2)Cc2cccc(-c4cc(=O)cc(N5CCOCC5)o4)c2S3)C[C@H](C)O1 + Nc1ncn([C@H]2C[C@H](O)[C@@H](CO)O2)c(=O)n1 [Decitabine] (partner 2 µM)
- relative viability (BEN; first compound 0.04 µM): 0.702
- relative viability (BEN; first compound 0.1265 µM): 0.696
- relative viability (BEN; first compound 0.4 µM): 0.81
- relative viability (BEN; first compound 4 µM): 0.735
- relative viability (EKVX; first compound 0.04 µM): 0.302
- relative viability (EKVX; first compound 0.1265 µM): 0.368
- relative viability (EKVX; first compound 0.4 µM): 0.303
- relative viability (EKVX; first compound 4 µM): 0.317
- relative viability (HCC-15; first compound 0.04 µM): 0.621
- relative viability (HCC-15; first compound 0.1265 µM): 0.594
- relative viability (HCC-15; first compound 0.4 µM): 0.558
- relative viability (HCC-15; first compound 4 µM): 0.59
- relative viability (HCC-366; first compound 0.04 µM): 0.347
- relative viability (HCC-366; first compound 0.1265 µM): 0.348
- relative viability (HCC-366; first compound 0.4 µM): 0.326
- relative viability (HCC-366; first compound 4 µM): 0.326
- relative viability (HCC-44; first compound 0.04 µM): 0.898
- relative viability (HCC-44; first compound 0.1265 µM): 0.93
- relative viability (HCC-44; first compound 0.4 µM): 0.972
- relative viability (HCC-44; first compound 4 µM): 0.953
- relative viability (LCLC-103H; first compound 0.04 µM): 0.693
- relative viability (LCLC-103H; first compound 0.1265 µM): 0.695
- relative viability (LCLC-103H; first compound 0.4 µM): 0.697
- relative viability (LCLC-103H; first compound 4 µM): 0.737
- relative viability (LOU-NH91; first compound 0.04 µM): 0.857
- relative viability (LOU-NH91; first compound 0.1265 µM): 0.819
- relative viability (LOU-NH91; first compound 0.4 µM): 0.81
- relative viability (LOU-NH91; first compound 4 µM): 0.749
- relative viability (NCI-H1355; first compound 0.04 µM): 0.389
- relative viability (NCI-H1355; first compound 0.1265 µM): 0.338
- relative viability (NCI-H1355; first compound 0.4 µM): 0.363
- relative viability (NCI-H1355; first compound 4 µM): 0.375
- relative viability (NCI-H1395; first compound 0.1265 µM): 0.763
- relative viability (NCI-H1395; first compound 0.4 µM): 0.653
- relative viability (NCI-H1395; first compound 4 µM): 0.752
- relative viability (NCI-H1437; first compound 0.04 µM): 0.648
- relative viability (NCI-H1437; first compound 0.1265 µM): 0.591
- relative viability (NCI-H1437; first compound 0.4 µM): 0.625
- relative viability (NCI-H1437; first compound 4 µM): 0.608
- relative viability (NCI-H1650; first compound 0.04 µM): 0.492
- relative viability (NCI-H1650; first compound 0.1265 µM): 0.44
- relative viability (NCI-H1650; first compound 0.4 µM): 0.488
- relative viability (NCI-H1650; first compound 4 µM): 0.499
- relative viability (NCI-H1651; first compound 0.04 µM): 0.628
- relative viability (NCI-H1651; first compound 0.1265 µM): 0.628
- relative viability (NCI-H1651; first compound 0.4 µM): 0.585
- relative viability (NCI-H1651; first compound 4 µM): 0.599
- relative viability (NCI-H1734; first compound 0.04 µM): 0.567
- relative viability (NCI-H1734; first compound 0.1265 µM): 0.507
- relative viability (NCI-H1734; first compound 0.4 µM): 0.474
- relative viability (NCI-H1734; first compound 4 µM): 0.574
- relative viability (NCI-H1755; first compound 0.04 µM): 0.708
- relative viability (NCI-H1755; first compound 0.1265 µM): 0.737
- relative viability (NCI-H1755; first compound 0.4 µM): 0.77
- relative viability (NCI-H1755; first compound 4 µM): 0.796
- relative viability (NCI-H1975; first compound 0.04 µM): 0.412
- relative viability (NCI-H1975; first compound 0.1265 µM): 0.44
- relative viability (NCI-H1975; first compound 0.4 µM): 0.364
- relative viability (NCI-H1975; first compound 4 µM): 0.347
- relative viability (NCI-H2023; first compound 0.04 µM): 0.197
- relative viability (NCI-H2023; first compound 0.1265 µM): 0.227
- relative viability (NCI-H2023; first compound 0.4 µM): 0.225
- relative viability (NCI-H2023; first compound 4 µM): 0.224
- relative viability (NCI-H2085; first compound 0.04 µM): 0.564
- relative viability (NCI-H2085; first compound 0.1265 µM): 0.589
- relative viability (NCI-H2085; first compound 0.4 µM): 0.605
- relative viability (NCI-H2085; first compound 4 µM): 0.584
- relative viability (NCI-H2342; first compound 0.04 µM): 0.76
- relative viability (NCI-H2342; first compound 0.1265 µM): 0.779
- relative viability (NCI-H2342; first compound 0.4 µM): 0.71
- relative viability (NCI-H2342; first compound 4 µM): 0.704
- relative viability (NCI-H358; first compound 0.04 µM): 0.181
- relative viability (NCI-H358; first compound 0.1265 µM): 0.204
- relative viability (NCI-H358; first compound 0.4 µM): 0.172
- relative viability (NCI-H358; first compound 4 µM): 0.14
- relative viability (NCI-H441; first compound 0.04 µM): 0.249
- relative viability (NCI-H441; first compound 0.1265 µM): 0.222
- relative viability (NCI-H441; first compound 0.4 µM): 0.29
- relative viability (NCI-H441; first compound 4 µM): 0.328
- relative viability (NCI-H460; first compound 0.04 µM): 0.401
- relative viability (NCI-H460; first compound 0.1265 µM): 0.466
- relative viability (NCI-H460; first compound 0.4 µM): 0.379
- relative viability (NCI-H460; first compound 4 µM): 0.335
- relative viability (NCI-H838; first compound 0.04 µM): 0.46
- relative viability (NCI-H838; first compound 0.1265 µM): 0.472
- relative viability (NCI-H838; first compound 0.4 µM): 0.518
- relative viability (NCI-H838; first compound 4 µM): 0.492
